This note sets out measurements from patent US20030054988A1, “Modified plasminogen related peptide fragments and their use as angiogenesis inhibitors” (priority 2000, published 2003).

In assay [1] the test system is human umbilical vein endothelial cell (HUVEC). Kind of assay: bFGF-induced HUVEC migration. It counts as cell-based. The source says:
(§1) The assay used in these experiments is described by Ji et al. in Biochem. Biophys. Res. Commun. 1998 247:414-419. […] In addition, the modified peptide fragment BMS-291242 (SEQ ID NO: 12) was an extremely potent inhibitor of bFGF-induced HUVEC migration.

Assay [2] concerns HUVEC. Put plainly: HUVEC proliferation in response to mitogenic stimulation. Format: cell-based, human. The text has this:
The anti-proliferative effects of the modified peptide fragments on endothelial cells in response to different mitogenic stimulation were also examined. The assay used in these experiments is described by Cao et al. in J. Biol. Chem. 1997 272(36):22924-22928. The modified peptide fragment BMS-291102 (SEQ ID NO: 2) was an extremely potent inhibitor of bFGF-elicited HUVEC proliferation.

The test system of assay [3] is endothelial cells in the matrigel plug. Kind of assay: In vivo Matrigel plug angiogenesis model. Conditions: 100 μM/plug, peptide embedded in matrigel, bFGF stimulation, nude mice. Here is the method:
Modified peptide fragments of the present invention were also evaluated in the matrigel plug model to determine their in vivo anti-angiogenic activities. To minimize the effects caused by differential pharmacokinetic properties of these compounds, the matrigel was prepared together with these peptides and the mixture was implanted into nude mice.
MATRIGEL was mixed with basic fibroblast growth factors at a final concentration of 300 μg/ml. Peptide fragments at selected doses were embedded with the MATRIGEL mixture and injected subcutaneously into mice. The animals were allowed to grow for 7 days. The plugs were then excised and the number of endothelial cells in the plug were examined histologically.

The test system of assay [4] is human umbilical vein endothelial cell (HUVEC). Put plainly: VEGF-induced HUVEC migration. As to conditions: VEGF-induced/stimulated; read-out: inhibition of VEGF-induced HUVEC migration (potency class). Format: cell-based.
From the text: as §1

Setting [5] is: bFGF-induced, read-out: inhibition of bFGF-induced HUVEC migration (potency class).

Consider “AQDWAAQEPHRHSIFTPETNPRAGLEKNYA [BMS-291242]”, for which the IC50 in assay [1] (setting [5]) was under 10 nM. In addition, the “anti-proliferative activity on endothelial cells” value in assay [2] (mitogenic stimulus not given) is listed as “moderate anti-proliferative activity”. Besides, the “reduction of number of endothelial cells in matrigel plug / inhibition of bFGF-elicited in vivo angiogenesis” value in assay [3] is given as “significantly inhibited”.
In the case of “NYARNPDGDVGGPWAY [BMS-291203, Ac-NYARNPDGDVGGPWAY-NH2]”, the “reduction of number of endothelial cells in matrigel plug / inhibition of bFGF-elicited in vivo angiogenesis” value in assay [3] is “effectively reduced the number of endothelial cells”.
The same measure, in the same setting: the value for “NYARNPDGDVGGPWAYTTNPRKLYDYADVPQA [BMS-291245]” was “significantly inhibited”.
For the sequence “TTNPRKLYDYADVPQA [BMS-291205, Ac-TTNPRKLYDYADVPQA-NH2]”, the IC50 in assay [1] (stimulus not given, presumably bFGF, read-out: IC50, marginal inhibitory activity (HUVEC migration)) is 1000 nM; in assay [4] it was under 100 nM.
“VTGTPAQDWAAQEPHR [BMS-291102, Ac-VTGTPAQDWAAQEPHR-NH2]”: the IC50 in assay [2] (bFGF-elicited, read-out: inhibition of bFGF-elicited HUVEC proliferation (potency class)) was under 10 nM. Moreover, the “reduction of number of endothelial cells in matrigel plug / inhibition of bFGF-elicited in vivo angiogenesis” value in assay [3] was “effectively reduced the number of endothelial cells”.
As to “WAAQEPHRHSIFTPET [BMS-291209, Ac-WAAQEPHRHSIFTPET-NH2]”, the IC50 in assay [1] (setting [5]) is under 100 nM; in assay [4], under 10 nM.
